Consider five molecules from patent publication US7485669B2, “Blockade of sodium channels by phenol derivatives” (B. Braun Melsungen AG, priority 2000, dated 2009).

Like-named read-outs stand apart in the source and are kept apart here.

In assay [1] the target is T1, human skeletal muscle sodium channels (Homo sapiens, UniProt P35499).
T1 construct: expressed in transfected cells
The assay is described as follows: Whole-cell voltage-clamp of heterologously expressed human skeletal muscle sodium channels in HEK 293 cells. Type of assay: cell-based. The settings on record: for time constant of channel inactivation τh: 40 ms steps −100 mV to 0 mV, control 0.43±0.08 ms; for frequency-dependent block: additional fall relative to the first pulse: 100 Hz train, −100 mV to 0 mV. The source says: The sodium channel blocking potency effects of different phenol derivatives with methyl and halogen substituents have been studied on heterologously expressed human skeletal muscle sodium channels. The phenol derivatives encompassed by formula (I) are either commercially available or can be synthesized by conventional standard laboratory methods.
Wild type α-subunits of human muscle sodium channels were heterologously expressed in human embryonic kidney (HEK 293) cells, a stable cell line since […] (American Tissue Culture Collection CRL 1573). Transfection was performed using calcium phosphate precipitation (Graham & Van der Eb, Virology, 52 (1973) 456-467). Permanent expression was achieved by selection for resistance to the aminoglycoside antibiotic geneticin G418 (Life Technology, Eggenstein, Germany) (Mitotic et al., J. Physiol., 478 (1994) 395-402). Successful channel expression was verified electrophysiologically. The clone has been used in several investigations (Haeseler et al.,Br. J. Pharmacol., 128 (1999) 1259-67; Haeseler et al., Br. J. Pharmacol. 130 (2000) 1321-1330; Mitrovic et al., ibid.).
3,5-dimethyl-4-chlorophenol (according to the invention) and 3-methylphenol (not according to the invention) were purchased from Sigma Chemicals, Deisenhofen, Germany; 4-chloro-2-methylphenol (not according to the invention) and 4-chlorophenol (not according to the invention) were from FLUKA, Deisenhofen, Germany. 3,5-Dimethyl-4-chlorophenol was prepared as a 1 M stock solution in methanol; 4-chloro-2-methylphenol, 4-chlorophenol, and 3-methylphenol were dissolved directly in the bath solution immediately before the experiments. Concentrations were calculated from the amount injected into the glass vials. Drug-containing solutions were protected from light and were vigorously vortexed for 60 min. The solution was applied via a glass polytetrafluoroethylene perfusion system and a stainless steel superfusion pipette. The bath solution contained (mM) NaCl 140, MgCl2 1.0, KCl 4.0, CaCl2 2.0, Hepes 5.0, dextrose 5.0. Patch electrodes contained (mM) […] 130, MgCl2 2.0, EGTA 5.0, Hepes 10. All solutions were adjusted to 290 mosm/l by the addition of mannitol and to pH 7.4 by the addition of CsOH.
Standard whole-cell voltage-clamp experiments (Hamill et al., Pfuegers Arch., 391 (1981) 85-100) were performed at 20° C. Each experiment consisted of test recordings with the drug present at only one concentration, and of drug-free control recordings before and after the test. Each whole-cell patch was exposed to one test concentration only. At least four experiments were performed at each concentration. The amount of the diluent methanol corresponding to the test concentration of 3,5-dimethyl-4-chlorophenol was added to the control solution. Patched cells were lifted into the visible stream of either bath solution or test solution, applied via a two-channel superfusion pipette close to the cell. To ensure adequate adjustment of the application device, one test experiment in distilled water reducing inward sodium current to zero was performed every 6-10 experiments.
For data acquisition and further analysis we used the EPC9 digitally-controlled amplifier in combination with Pulse and Pulse Fit software (HEKA Electronics, Lambrecht, Germany). The EPC9 provides automatic subtraction of capacitive and leakage currents by means of a prepulse protocol. The data were filtered at 10 kHz and digitized at 20 μs per point. Input resistance of the patch pipettes was at 1.8-2.5 MΩ. Only small cells with capacitances of 9-15 pF were used; residual series resistance (after 50% compensation) was 1.2-2.5 MΩ; experiments with a rise in series resistance were rejected. The time constant of the voltage settling within the membrane (residual series resistance×cell capacitance) was less than 35 μs. […]

For assay [2], the target named is heterologously expressed muscle sodium channels (Homo sapiens, UniProt P35499). The settings on record: −100 mV; Fan et al. 1996; read-out: IC50 for block of heterologously expressed muscle sodium channels at −100 mV; cited from earlier work.
Setting [3] is: IC50 for block of inward sodium current at a holding potential of −150 mV, holding potential −150 mV, 10 ms pulse to 0 mV.
[4] abbreviates: IC50 for block of sodium currents on depolarization from -100 mV to 0 mV, holding potential −100 mV, test pulse to 0 mV.

T1 sequence (P35499 whole entry): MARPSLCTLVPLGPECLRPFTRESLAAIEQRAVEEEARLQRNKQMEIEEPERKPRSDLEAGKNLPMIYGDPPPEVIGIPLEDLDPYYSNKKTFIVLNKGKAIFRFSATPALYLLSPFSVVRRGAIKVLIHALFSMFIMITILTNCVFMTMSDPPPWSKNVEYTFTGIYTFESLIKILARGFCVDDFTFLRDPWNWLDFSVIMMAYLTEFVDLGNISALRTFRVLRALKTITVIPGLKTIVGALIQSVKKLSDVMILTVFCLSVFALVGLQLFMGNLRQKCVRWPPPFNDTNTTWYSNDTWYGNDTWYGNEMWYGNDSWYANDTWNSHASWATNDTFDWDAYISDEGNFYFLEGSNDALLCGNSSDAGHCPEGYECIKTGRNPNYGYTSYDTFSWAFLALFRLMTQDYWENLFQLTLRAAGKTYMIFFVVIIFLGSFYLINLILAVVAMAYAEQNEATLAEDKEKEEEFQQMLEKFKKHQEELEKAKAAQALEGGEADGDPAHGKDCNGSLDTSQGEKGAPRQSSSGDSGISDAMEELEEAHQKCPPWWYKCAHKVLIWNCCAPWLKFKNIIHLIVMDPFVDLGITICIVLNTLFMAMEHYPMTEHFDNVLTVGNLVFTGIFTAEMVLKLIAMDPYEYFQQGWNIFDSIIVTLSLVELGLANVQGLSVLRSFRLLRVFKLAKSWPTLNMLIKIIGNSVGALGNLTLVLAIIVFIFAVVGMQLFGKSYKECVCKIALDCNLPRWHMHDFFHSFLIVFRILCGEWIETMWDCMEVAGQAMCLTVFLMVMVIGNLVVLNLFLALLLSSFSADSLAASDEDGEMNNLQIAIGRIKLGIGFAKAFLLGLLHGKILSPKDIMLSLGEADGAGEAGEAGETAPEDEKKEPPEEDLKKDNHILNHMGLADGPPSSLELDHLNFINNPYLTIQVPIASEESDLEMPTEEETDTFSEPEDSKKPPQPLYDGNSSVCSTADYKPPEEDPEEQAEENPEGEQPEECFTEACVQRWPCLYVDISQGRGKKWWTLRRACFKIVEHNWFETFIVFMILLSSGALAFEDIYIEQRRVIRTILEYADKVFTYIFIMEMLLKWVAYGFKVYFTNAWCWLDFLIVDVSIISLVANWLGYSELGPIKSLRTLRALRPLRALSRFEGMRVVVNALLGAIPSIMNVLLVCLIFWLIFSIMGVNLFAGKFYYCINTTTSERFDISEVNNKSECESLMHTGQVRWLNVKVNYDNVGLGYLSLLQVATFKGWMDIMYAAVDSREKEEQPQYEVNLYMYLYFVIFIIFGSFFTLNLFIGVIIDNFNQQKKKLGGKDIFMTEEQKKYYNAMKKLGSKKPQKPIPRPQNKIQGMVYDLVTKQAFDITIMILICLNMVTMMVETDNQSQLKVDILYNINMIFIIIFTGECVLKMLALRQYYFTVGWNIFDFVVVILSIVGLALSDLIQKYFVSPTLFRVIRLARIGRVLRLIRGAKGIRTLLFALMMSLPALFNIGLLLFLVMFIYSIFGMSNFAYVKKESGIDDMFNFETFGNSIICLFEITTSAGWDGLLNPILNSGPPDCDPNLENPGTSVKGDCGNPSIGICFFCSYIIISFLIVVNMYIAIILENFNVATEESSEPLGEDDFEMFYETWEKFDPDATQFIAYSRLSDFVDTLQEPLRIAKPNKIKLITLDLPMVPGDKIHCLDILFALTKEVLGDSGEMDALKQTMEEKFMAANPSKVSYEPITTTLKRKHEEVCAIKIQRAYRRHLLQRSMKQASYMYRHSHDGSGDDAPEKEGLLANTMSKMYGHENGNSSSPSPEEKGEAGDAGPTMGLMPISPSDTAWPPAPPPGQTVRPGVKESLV
Chain of heterologously expressed muscle sodium channels (P35499 whole entry): as above

For the molecule `Cc1cccc(O)c1` [3-methylphenol], in assay [1] (1000 μM drug), the “time constant of channel inactivation τh” value is 0.30 ± 0.08 ms. Further, the “frequency-dependent block: additional fall relative to the first pulse” value in assay [1] (3000 μM drug) is listed as 8±2%. For the same molecule, the figures for the IC50 in assay [1] (setting [3]) and in assay [1] (setting [4]) were 2400 µM and 2160 µM, respectively.

`Cc1cc(O)cc(C)c1Cl` [3,5-dimethyl-4-chlorophenol]: the “time constant of channel inactivation τh” value in assay [1] (50 μM drug) was found to be 0.27 ± 0.02 ms. Besides, the “frequency-dependent block: additional fall relative to the first pulse” value in assay [1] (300 μM drug) came to 17±5%. Further, the equilibrium dissociation constant (Kd) (commonly the equilibrium constant for the complex coming apart) in assay [1] (derived from drug-induced shifts in steady-state availability curves, read-out: KD for the fast-inactivated state) was 14 µM. The concentration for half-maximal inhibition (IC50) – broadly, the concentration needed to halve the response being measured – came to 150 µM in assay [1] (holding potential −100 mV, test pulse to 0 mV, read-out: IC50 for block of sodium currents on depolarization from -100 mV to 0 mV) and 162 µM in assay [1] (holding potential −150 mV, 10 ms pulse to 0 mV, read-out: IC50 for block of inward sodium current at a holding potential of −150 mV).

As to `CCN(CC)CC(=O)Nc1c(C)cccc1C` [lidocaine, 2-diethylamino-2′,6′-dimethylacetanilide], the IC50 in assay [2] was 500 µM.

Regarding `Oc1ccc(Cl)cc1` [4-chlorophenol], the “time constant of channel inactivation τh” value in assay [1] (500 μM drug) is 0.23 ± 0.03 ms. For the same molecule, the “frequency-dependent block: additional fall relative to the first pulse” value in assay [1] (1000 μM drug) stood at 13±2%. Besides, the IC50 turned out to be 751 µM in assay [1] (setting [3]) and 666 µM in assay [1] (setting [4]).

Consider `Cc1cc(Cl)ccc1O` [4-chloro-2-methylphenol], for which, in assay [1] (100 μM drug), the “time constant of channel inactivation τh” value was 0.27 ± 0.05 ms. Besides, the “frequency-dependent block: additional fall relative to the first pulse” value in assay [1] (500 μM drug) came to 16±5%. For the same molecule, the half-inhibitory concentration (IC50) in assay [1] (setting [3]) amounted to 316 µM; in assay [1] (setting [4]), 268 µM.
